Measurements: US6372774B1, “Derivatives of N-phenylpyrazoles” (Rhone-Poulenc Agriculture Ltd., priority 1985, dated 2002)

How the values were obtained:
[1] = test system: Megoura viciae (Vetch Aphid); assay: Test 1(b): spray of infested tic bean plants, Megoura viciae; assay type: in vivo; details: at 50 ppm, 2 days, score 0-3 per replicate, 4 replicates (maximum 12)
Procedure: (§1) One or more dilutions of the compounds to be tested were made in 50% aqueous acetone.
(b) Megoura viciae (Vetch Aphid)
(§2) Potted tic bean plants previously infected with mixed stages of Megoura were sprayed to run-off using a laboratory turntable sprayer. Treated plants were held in a greenhouse for 2 days and were assessed for aphid mortality using a scoring system, judging the response in comparison with plants treated with 50% aqueous acetone alone, as controls. Each treatment was replicated 4 times.

[2] = test system: Plutella xylostella (Diamond-back Moth); assay: whole plant or invertebrate; assay type: in vivo; details: foliar
In short: (§3)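 Compounds were diluted in 50% aqueous acetone and sprayed in a Potter Tower onto turnip leaf discs in agar, each infested with 10 larvae (2nd instar Plutella, 3rd instar Phaedon), with four replicates per treatment. Mean percentage larval mortality was scored 4–5 days later at 25 °C.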

[3] = test system: Phaedon cochleariae (Mustard Beetle); assay: Test 3 a): leaf disc spray test, Phaedon cochleariae larvae; assay type: in vivo; details: Phaedon cochleariae, foliar, read-out: Phaedon % m 10 ppm
In short: as §3

[4] = test system: Megoura viciae (Vetch Aphid); assay: Test 3 b): spray of infested tic bean plants, Megoura viciae; assay type: in vivo
Procedure: as §1
b) Megoura viciae (Vetch Aphid)
as §2, with “controls.” for “controls. Each treatment was replicated 4 times.”

[5] = test system: larvae of Rhipicephalus appendiculatus; assay: Test 4: tick larvae on guinea-pigs given subcutaneous injections; assay type: in vivo; details: for percentage survival through moulting of engorged tick larvae: recovered ticks kept at 23° C. for 14 to 21 days; for Result: ticks recovered / number of engorged ticks / Result: ticks recovered / engorgement: 4 subcutaneous injections to guinea-pigs, about 100 hours after infestation
Procedure: Some 20 larvae of Rhipicephalus appendiculatus were placed in plastic capsules attached to the shaved flank of guinea-pigs. After 3 hours and then at 23 hourly intervals, the guinea-pigs were given a total of 4 subcutaneous injections of the test compound. Approximately 100 hours after infestation, the guinea-pigs were killed and the engorged tick larvae recovered, counter and kept at 23° C. in a humidity cabinet for 14 to 21 days. After this period, the percentage survival through moulting was assessed.

[6] = Dose 2.5 mg/kg at each repetition
[7] = Dose 3 mg/kg at each repetition
[8] = Dose 4 mg/kg at each repetition
[9] = Dose 5 mg/kg at each repetition

N#Cc1nn(-c2c(Cl)cc(C(F)(F)F)cc2Cl)c(N)c1SC(Cl)(Cl)Cl [Compound 11, 5-Amino-3-cyano-1-(2,6-dichloro-4-trifluoromethylphenyl)-4-trichloromethylthiopyrazole]
score against all stages of Megoura viciae [1]: 7/12

CC(C)[S+]([O-])c1c(C#N)nn(-c2c(Cl)cc(C(F)(F)F)cc2Cl)c1N (centres unmarked) [Compound 58, 5-Amino-3-cyano-1-(2,6-dichloro-4-trifluoromethylphenyl)-4-isopropylsulphinylpyrazole]
score against all stages of Megoura viciae [1]: 7/12

CCCSc1c(C#N)nn(-c2c(Cl)cc(C(F)(F)F)cc2Cl)c1N [Compound 71, 5-Amino-3-cyano-1-(2,6-dichloro-4-trifluoromethylphenyl)-4-propylthiopyrazole]
score against all stages of Megoura viciae [1]: 7/12

CC(C)Sc1c(C#N)nn(-c2c(Cl)cc(C(F)(F)F)cc2Cl)c1N [Compound 72, 5-Amino-3-cyano-1-(2,6-dichloro-4-trifluoromethylphenyl)-4-isopropylthiopyrazole]
score against all stages of Megoura viciae [1]: 7/12

CC(C)CSc1c(C#N)nn(-c2c(Cl)cc(C(F)(F)F)cc2Cl)c1N [Compound 73, 5-Amino-3-cyano-1-(2,6-dichloro-4-trifluoromethylphenyl)-4-(2-methylpropylthio)pyrazole]
score against all stages of Megoura viciae [1]: 7/12

N#Cc1c(C(F)(F)F)nn(-c2c(Cl)cc(C(F)(F)F)cc2Cl)c1N [Compound 113, 5-Amino-4-cyano-1-(2,6-dichloro-4-trifluoromethylphenyl)-3-trifluoromethylpyrazole]
mortality at 500 ppm ([2]; read-out: mortality of larvae of Plutella xylostella): 100%
pest or weed control at 10 ppm [3]: 100%
mortality at 50 ppm ([4]; Megoura viciae, read-out: mortality of Megoura viciae): 100%
score from 4 replicates, Megoura viciae ([4]; Test 3 method (b), application of 50 ppm, score 0-3 per replicate, maximum 12): 12
percentage survival through moulting of engorged tick larvae ([5]; Dose 1.0 mg/kg at each repetition): only 47.9 percent survived
percentage survival through moulting of engorged tick larvae [5, 6]: only 30.0 percent survived
Result: ticks recovered / number of engorged ticks [5, 7]: reduced
percentage survival through moulting of engorged tick larvae [5, 7]: 8.3%
Result: ticks recovered / engorgement [5, 8]: No ticks recovered
Result: ticks recovered / engorgement [5, 9]: No ticks recovered

CC(=O)Nc1c(C#N)c(C#N)nn1-c1c(Cl)cc(C(F)(F)F)cc1Cl [Compound 120, 5-Acetamido-1-(2,6-dichloro-4-trifluoromethylphenyl)-3,4-dicyanopyrazole]
percentage survival through moulting of engorged tick larvae [5, 6]: only 62.5 percent survived
Result: ticks recovered / number of engorged ticks [5, 7]: Less than five engorged ticks
Result: ticks recovered / engorgement [5, 8]: No ticks recovered
Result: ticks recovered / engorgement [5, 9]: No ticks recovered

CC(=O)Nc1c(C#N)c(C(F)(F)F)nn1-c1c(Cl)cc(C(F)(F)F)cc1Cl [Compound 133, 5-Acetamido-4-cyano-1-(2,6-dichloro-4-trifluoromethylphenyl)-3-trifluoromethylpyrazole]
mortality at 100 ppm ([2]; read-out: Plutella % mortality at 100 ppm): 21%
pest or weed control at 10 ppm [3]: 100%
Result: ticks recovered / engorgement [5, 6]: No ticks recovered
Result: ticks recovered / engorgement [5, 9]: No ticks recovered
Result: ticks recovered / engorgement ([5]; Dose 15 mg/kg at each repetition): No ticks recovered

CC(C)(C)C(=O)Nc1c(C#N)c(C#N)nn1-c1c(Cl)cc(C(F)(F)F)cc1Cl [Compound 134, 1-(2,6-Dichloro-4-trifluoromethylphenyl)-3,4-dicyano-5-(2,2-dimethylpropionamido)-pyrazole]
Result: ticks recovered / engorgement [5, 9]: Less than five engorged ticks
Result: ticks recovered / engorgement ([5]; Dose 10 mg/kg at each repetition): No ticks recovered

CC(=O)Nc1c(S(C)(=O)=O)c(C(F)(F)F)nn1-c1c(Cl)cc(C(F)(F)F)cc1Cl [Compound 170, 5-Acetamido-1-(2,6-dichloro-4-trifluoromethylphenyl)-4-methanesulphonyl-3-trifluoromethylpyrazole]
melting point: 194 to 195 °C

N#Cc1nn(-c2c(Cl)cc([N+](=O)[O-])cc2Cl)c(N)c1C#N [Compound 172, 5-Amino-1-(2,6-dichloro-4-nitrophenyl)-3,4-dicyanopyrazole]
melting point: 289 to 290 °C

CCOC(=O)N(C)c1c(C#N)c(C(F)(F)F)nn1-c1c(Cl)cc(C(F)(F)F)cc1Cl [Compound 175, 4-Cyano-1-(2,6-dichloro-4-trifluoromethylphenyl)-5-(N-methyl-N-ethoxycarbonylamino)-3-trifluoromethylpyrazole]
melting point: 88 to 90 °C

CC(=O)Nc1c([N+](=O)[O-])c(C(F)(F)F)nn1-c1c(Cl)cc(C(F)(F)F)cc1Cl [Compound 192, 5-Acetamido-1-(2,6-dichloro-4-trifluoromethylphenyl)-4-nitro-3-trifluoromethylpyrazole]
melting point: 194 to 195 °C

N#Cc1c(C(F)(F)F)nn(-c2c(Cl)cc(C(F)(F)F)cc2Cl)c1SC(F)(F)F [Compound 208, 4-Cyano-1-(2,6-dichloro-4-trifluoromethylphenyl)-3-trifluoromethyl-5-trifluoromethylthiopyrazole]
melting point: 120 to 122 °C

N#Cc1c(C(F)(F)F)nn(-c2c(Cl)cc(C(F)(F)F)cc2Cl)c1C(=O)O [Compound 209, 5-Carboxy-4-cyano-1-(2,6-dichloro-4-trifluoromethylphenyl)-3-trifluoromethylpyrazole]
melting point: 177 to 179 °C

CC(=O)c1cn(-c2c(Cl)cc(C(F)(F)F)cc2Cl)nc1C(F)(F)F [Compound 215, 4-Acetyl-1-(2,6-dichloro-4-trifluoromethylphenyl)-3-trifluoromethylpyrazole]
melting point: 134 °C

CC[S+]([O-])c1c(C)nn(-c2c(Cl)cc(C(F)(F)F)cc2Cl)c1N (centres unmarked) [Compound 218, 5-Amino-1-(2,6-dichloro-4-trifluoromethylphenyl)-4-ethylsulphinyl-3-methylpyrazole]
melting point: 157 to 158 °C

CCS(=O)(=O)c1c(C)nn(-c2c(Cl)cc(C(F)(F)F)cc2Cl)c1N [Compound 222, 5-Amino-1-(2,6-dichloro-4-trifluoromethylphenyl)-4-ethylsulphonyl-3-methylpyrazole]
melting point: 193 °C

CCCS(=O)(=O)c1c(C)nn(-c2c(Cl)cc(C(F)(F)F)cc2Cl)c1N [Compound 223, 5-Amino-1-(2,6-dichloro-4-trifluoromethylphenyl)-3-methyl-4-propanesulphonylpyrazole]
melting point: 145.5 to 147 °C

CCCSc1c(C)nn(-c2c(Cl)cc(C(F)(F)F)cc2Cl)c1N [Compound 227, 5-Amino-1-(2,6-dichloro-4-trifluoromethylphenyl)-4-n-propylthio-3-methylpyrazole]
melting point: 100 to 102 °C

N#CSc1c(C(F)(F)F)nn(-c2c(Cl)cc(C(F)(F)F)cc2Cl)c1N [Compound 230, 5-Amino-1-(2,6-dichloro-4-trifluoromethylphenyl)-4-thiocyanato-3-trifluoromethylpyrazole]
melting point: 49 to 50 °C

Cc1nn(-c2c(Cl)cc(C(F)(F)F)cc2Cl)c(N)c1SC#N [Compound 231, 5-Amino-1-(2,6-dichloro-4-trifluoromethylphenyl)-3-methyl-4-thiocyanatopyrazole]
melting point: 133.5 °C

CS(=O)(=O)c1cc(Cl)c(-n2nc(C(F)(F)F)c(C#N)c2N)c(Cl)c1 [Compound 232, 5-Amino-4-cyano-1-(2,6-dichloro-4-methanesulphonylphenyl)-3-trifluoromethylpyrazole]
melting point: 270 to 272 °C

Cc1nn(-c2c(Cl)cc(C(F)(F)F)cc2Cl)c(N)c1SC(Cl)(Cl)Cl [Compound 233, 5-Amino-1-(2,6-dichloro-4-trifluoromethylphenyl)-3-methyl-4-trichloromethylthiopyrazole]
melting point: 156 °C

N#Cc1c(C(F)(F)F)nn(-c2c(Cl)cc(S(=O)(=O)C(F)(F)F)cc2Cl)c1[N+](=O)[O-] [Compound 234, 4-Cyano-1-(2,6-dichloro-4-trifluoromethanesulphonylphenyl)-5-nitro-3-trifluoromethylpyrazole]
melting point: 168 to 169 °C

FC(F)c1cn(-c2c(Cl)cc(C(F)(F)F)cc2Cl)nc1C(F)(F)F [Compound 235, 1-(2,6-Dichloro-4-trifluoromethylphenyl)-4-difluoromethyl-3-trifluoromethylpyrazole]
melting point: 88 to 90 °C

Cc1c(C(F)(F)F)nn(-c2c(Cl)cc(C(F)(F)F)cc2Cl)c1N [Compound 236, 5-Amino-1-(2,6-dichloro-4-trifluoromethylphenyl)-4-methyl-3-trifluoromethylpyrazole]
melting point: 97 to 100 °C
